Columns and labels:
Details in all cases: Compound concentration 10.0 uM
[1] = target: Tyrosine-protein kinase JAK3 (Homo sapiens) (UniProt P52333); assay: Inhibition of JAK3(h) at 10.0 µM in the Eurofins Kinase panel
[2] = target: Mitogen-activated protein kinase kinase kinase 8 (Homo sapiens) (UniProt P41279); assay: Inhibition of COT(h) at 10.0 µM in the Eurofins Kinase panel
[3] = target: Serine/threonine-protein kinase ULK3 (Homo sapiens) (UniProt Q6PHR2); assay: Inhibition of ULK3(h) at 10.0 µM in the Eurofins Kinase panel
[4] = target: Receptor-interacting serine/threonine-protein kinase 1 (Homo sapiens) (UniProt Q13546); assay: Inhibition of RIPK1(h) at 10.0 µM in the Eurofins Kinase panel
[5] = target: D(1A) dopamine receptor (Homo sapiens) (UniProt P21728)
[6] = target: Serine/threonine-protein kinase D1 (Homo sapiens) (UniProt Q15139); assay: Inhibition of PKCmu(h) at 10.0 µM in the Eurofins Kinase panel
[7] = target: Serine/threonine-protein kinase PLK3 (Homo sapiens) (UniProt Q9H4B4); assay: Inhibition of Plk3(h) at 10.0 µM in the Eurofins Kinase panel
[8] = target: Receptor-interacting serine/threonine-protein kinase 2 (Homo sapiens) (UniProt O43353); assay: Inhibition of RIPK2(h) at 10.0 µM in the Eurofins Kinase panel
[9] = target: Serine/threonine-protein kinase 38 (Homo sapiens) (UniProt Q15208); assay: Inhibition of NDR1(h) at 10.0 µM in the Eurofins Kinase panel
[10] = target: RAC-gamma serine/threonine-protein kinase (Homo sapiens) (UniProt Q9Y243); assay: Inhibition of PKBgamma(h) at 10.0 µM in the Eurofins Kinase panel
[11] = target: Tyrosine-protein kinase Yes (Homo sapiens) (UniProt P07947); assay: Inhibition of Yes(h) at 10.0 µM in the Eurofins Kinase panel
[12] = target: T1, D(4) dopamine receptor (Homo sapiens) (UniProt P21917)
T1 sequence (whole entry): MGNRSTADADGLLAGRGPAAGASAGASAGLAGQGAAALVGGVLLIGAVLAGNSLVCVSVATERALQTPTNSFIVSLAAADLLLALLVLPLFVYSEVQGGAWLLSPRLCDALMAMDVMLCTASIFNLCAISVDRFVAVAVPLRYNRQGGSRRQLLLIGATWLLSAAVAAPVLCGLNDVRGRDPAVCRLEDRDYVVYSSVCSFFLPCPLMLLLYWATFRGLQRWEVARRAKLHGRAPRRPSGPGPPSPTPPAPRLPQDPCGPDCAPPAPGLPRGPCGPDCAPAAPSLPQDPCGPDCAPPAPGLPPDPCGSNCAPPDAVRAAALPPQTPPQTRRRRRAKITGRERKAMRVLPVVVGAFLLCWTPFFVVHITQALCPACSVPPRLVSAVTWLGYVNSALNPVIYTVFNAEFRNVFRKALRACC

[13] = target: Serine/threonine-protein kinase 4 (Homo sapiens) (UniProt Q13043); assay: Inhibition of MST1(h) at 10.0 µM in the Eurofins Kinase panel
[14] = target: Casein kinase I isoform gamma-2 (Homo sapiens) (UniProt P78368); assay: Inhibition of CK1gamma2(h) at 10.0 µM in the Eurofins Kinase panel
[15] = target: Insulin receptor-related protein (Homo sapiens) (UniProt P14616); assay: Inhibition of IRR(h) at 10.0 µM in the Eurofins Kinase panel
[16] = target: Serine/threonine-protein kinase 10 (Homo sapiens) (UniProt O94804); assay: Inhibition of LOK(h) at 10.0 µM in the Eurofins Kinase panel
[17] = target: Ribosomal protein S6 kinase beta-2 (Homo sapiens) (UniProt Q9UBS0); assay: Inhibition of p70S6Kbeta(h) at 10.0 µM in the Eurofins Kinase panel
[18] = target: Insulin receptor (Homo sapiens) (UniProt P06213); assay: Inhibition of IR(h) at 10.0 µM in the Eurofins Kinase panel
[19] = target: Dual specificity protein kinase CLK1 (Homo sapiens) (UniProt P49759); assay: Inhibition of CLK1(h) at 10.0 µM in the Eurofins Kinase panel
[20] = target: Serine/threonine-protein kinase/endoribonuclease IRE1 (Homo sapiens) (UniProt O75460); assay: Inhibition of IRE1(h) at 10.0 µM in the Eurofins Kinase panel
[21] = target: [Pyruvate dehydrogenase (acetyl-transferring)] kinase isozyme 4, mitochondrial (Homo sapiens) (UniProt Q16654); assay: Inhibition of PDHK4(h) at 10.0 µM in the Eurofins Kinase panel
[22] = target: Serine/threonine-protein kinase N1 (Homo sapiens) (UniProt Q16512); assay: Inhibition of PRK1(h) at 10.0 µM in the Eurofins Kinase panel
[23] = target: Ribosomal protein S6 kinase beta-1 (Homo sapiens) (UniProt P23443); assay: Inhibition of p70S6K(h) at 10.0 µM in the Eurofins Kinase panel
[24] = target: Ephrin type-A receptor 3 (Homo sapiens) (UniProt P29320); assay: Inhibition of EphA3(h) at 10.0 µM in the Eurofins Kinase panel
[25] = target: Serine/threonine-protein kinase VRK1 (Homo sapiens) (UniProt Q99986); assay: Inhibition of VRK1(h) at 10.0 µM in the Eurofins Kinase panel
[26] = target: Mitogen-activated protein kinase 13 (Homo sapiens) (UniProt O15264); assay: Inhibition of SAPK4(h) at 10.0 µM in the Eurofins Kinase panel
[27] = target: Homeodomain-interacting protein kinase 1 (Homo sapiens) (UniProt Q86Z02); assay: Inhibition of HIPK1(h) at 10.0 µM in the Eurofins Kinase panel
[28] = target: Calcium/calmodulin-dependent protein kinase kinase 2 (Homo sapiens) (UniProt Q96RR4); assay: Inhibition of CaMKK2(h) at 10.0 µM in the Eurofins Kinase panel
[29] = target: Serine/threonine-protein kinase 32A (Homo sapiens) (UniProt Q8WU08); assay: Inhibition of STK32A(h) at 10.0 µM in the Eurofins Kinase panel
[30] = target: CDK4/Cyclin D3 (Homo sapiens) (UniProt P11802+P30281); assay: Inhibition of CDK4/cyclinD3(h) at 10.0 µM in the Eurofins Kinase panel; type: protein-complex assay
[31] = target: Serine/threonine-protein kinase LATS1 (Homo sapiens) (UniProt O95835); assay: Inhibition of LATS1(h) at 10.0 µM in the Eurofins Kinase panel
[32] = target: SRSF protein kinase 1 (Homo sapiens) (UniProt Q96SB4); assay: Inhibition of SRPK1(h) at 10.0 µM in the Eurofins Kinase panel
[33] = target: Serine/threonine-protein kinase D3 (Homo sapiens) (UniProt O94806); assay: Inhibition of PKD3(h) at 10.0 µM in the Eurofins Kinase panel

Chain of Receptor-interacting serine/threonine-protein kinase 1 (Homo sapiens) (Q13546 whole entry): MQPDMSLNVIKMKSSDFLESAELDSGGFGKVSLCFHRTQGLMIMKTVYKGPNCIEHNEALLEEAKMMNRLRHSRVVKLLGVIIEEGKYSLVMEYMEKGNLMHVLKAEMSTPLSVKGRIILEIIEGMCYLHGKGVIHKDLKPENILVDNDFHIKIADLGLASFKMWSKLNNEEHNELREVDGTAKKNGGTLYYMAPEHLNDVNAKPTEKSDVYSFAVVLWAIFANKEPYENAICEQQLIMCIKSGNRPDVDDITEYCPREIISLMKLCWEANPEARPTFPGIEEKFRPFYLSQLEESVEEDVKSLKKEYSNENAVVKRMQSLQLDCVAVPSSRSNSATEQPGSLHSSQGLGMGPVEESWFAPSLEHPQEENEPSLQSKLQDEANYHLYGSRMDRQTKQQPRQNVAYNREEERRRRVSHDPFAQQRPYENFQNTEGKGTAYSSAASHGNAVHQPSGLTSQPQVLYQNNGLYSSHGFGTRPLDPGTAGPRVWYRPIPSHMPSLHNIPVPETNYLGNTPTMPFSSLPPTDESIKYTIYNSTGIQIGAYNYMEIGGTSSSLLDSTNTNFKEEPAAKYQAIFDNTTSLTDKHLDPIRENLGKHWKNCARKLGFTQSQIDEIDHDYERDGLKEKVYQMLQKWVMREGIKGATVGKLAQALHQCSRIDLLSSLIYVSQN
Chain of Serine/threonine-protein kinase N1 (Homo sapiens) (Q16512 2-942 limits assumed): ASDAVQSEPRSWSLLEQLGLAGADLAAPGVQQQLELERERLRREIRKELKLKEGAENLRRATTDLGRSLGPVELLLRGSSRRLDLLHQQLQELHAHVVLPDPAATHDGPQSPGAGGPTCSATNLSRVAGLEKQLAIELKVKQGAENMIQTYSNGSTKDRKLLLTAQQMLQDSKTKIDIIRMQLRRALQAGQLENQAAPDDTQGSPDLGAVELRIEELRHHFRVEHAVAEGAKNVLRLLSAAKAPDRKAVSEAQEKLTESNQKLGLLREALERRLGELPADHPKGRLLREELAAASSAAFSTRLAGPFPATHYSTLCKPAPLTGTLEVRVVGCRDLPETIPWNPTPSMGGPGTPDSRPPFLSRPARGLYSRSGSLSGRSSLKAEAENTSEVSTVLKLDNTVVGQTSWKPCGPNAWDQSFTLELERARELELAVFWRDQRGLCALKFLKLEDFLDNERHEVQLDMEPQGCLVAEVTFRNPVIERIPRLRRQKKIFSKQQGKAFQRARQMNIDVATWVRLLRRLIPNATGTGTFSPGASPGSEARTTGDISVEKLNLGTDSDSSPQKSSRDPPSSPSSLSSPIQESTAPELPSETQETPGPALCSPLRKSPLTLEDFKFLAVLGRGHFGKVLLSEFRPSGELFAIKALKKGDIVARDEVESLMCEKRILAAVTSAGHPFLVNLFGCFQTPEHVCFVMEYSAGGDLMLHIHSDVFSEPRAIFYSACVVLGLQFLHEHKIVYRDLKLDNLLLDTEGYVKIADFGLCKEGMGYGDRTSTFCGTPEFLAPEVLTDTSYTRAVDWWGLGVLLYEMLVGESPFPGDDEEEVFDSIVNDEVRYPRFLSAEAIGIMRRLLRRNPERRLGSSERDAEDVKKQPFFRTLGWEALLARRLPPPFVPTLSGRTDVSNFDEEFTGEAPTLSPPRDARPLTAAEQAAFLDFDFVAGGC
Chain of Serine/threonine-protein kinase PLK3 (Homo sapiens) (Q9H4B4 whole entry, looked up): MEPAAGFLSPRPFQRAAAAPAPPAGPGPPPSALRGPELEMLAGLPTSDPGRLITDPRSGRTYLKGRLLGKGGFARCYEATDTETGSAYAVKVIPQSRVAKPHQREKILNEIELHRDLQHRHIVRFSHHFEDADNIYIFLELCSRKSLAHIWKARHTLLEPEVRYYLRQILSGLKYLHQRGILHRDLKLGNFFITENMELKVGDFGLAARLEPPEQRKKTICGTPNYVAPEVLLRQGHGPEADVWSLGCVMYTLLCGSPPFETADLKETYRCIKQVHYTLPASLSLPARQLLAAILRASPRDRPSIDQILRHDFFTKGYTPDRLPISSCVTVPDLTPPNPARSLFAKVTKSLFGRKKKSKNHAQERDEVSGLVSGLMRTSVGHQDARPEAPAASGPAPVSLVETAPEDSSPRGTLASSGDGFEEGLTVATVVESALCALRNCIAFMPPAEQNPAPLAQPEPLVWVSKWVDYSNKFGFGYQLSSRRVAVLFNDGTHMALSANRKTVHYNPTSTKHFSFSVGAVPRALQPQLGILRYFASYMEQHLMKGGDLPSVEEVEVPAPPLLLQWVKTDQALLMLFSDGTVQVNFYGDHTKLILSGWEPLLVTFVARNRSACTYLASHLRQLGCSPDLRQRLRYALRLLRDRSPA
Chain of Mitogen-activated protein kinase 13 (Homo sapiens) (O15264 whole entry): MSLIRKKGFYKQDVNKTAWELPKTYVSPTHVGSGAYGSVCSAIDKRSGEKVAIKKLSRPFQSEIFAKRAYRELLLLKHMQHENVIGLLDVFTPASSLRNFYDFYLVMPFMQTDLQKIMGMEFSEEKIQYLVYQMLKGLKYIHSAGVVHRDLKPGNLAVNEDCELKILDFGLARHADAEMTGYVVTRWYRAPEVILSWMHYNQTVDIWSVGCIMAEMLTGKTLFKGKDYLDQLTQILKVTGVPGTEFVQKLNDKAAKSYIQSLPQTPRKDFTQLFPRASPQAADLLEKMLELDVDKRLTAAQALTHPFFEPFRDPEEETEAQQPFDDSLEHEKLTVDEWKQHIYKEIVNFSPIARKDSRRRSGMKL
Chain of Calcium/calmodulin-dependent protein kinase kinase 2 (Homo sapiens) (Q96RR4 2-588 limits assumed): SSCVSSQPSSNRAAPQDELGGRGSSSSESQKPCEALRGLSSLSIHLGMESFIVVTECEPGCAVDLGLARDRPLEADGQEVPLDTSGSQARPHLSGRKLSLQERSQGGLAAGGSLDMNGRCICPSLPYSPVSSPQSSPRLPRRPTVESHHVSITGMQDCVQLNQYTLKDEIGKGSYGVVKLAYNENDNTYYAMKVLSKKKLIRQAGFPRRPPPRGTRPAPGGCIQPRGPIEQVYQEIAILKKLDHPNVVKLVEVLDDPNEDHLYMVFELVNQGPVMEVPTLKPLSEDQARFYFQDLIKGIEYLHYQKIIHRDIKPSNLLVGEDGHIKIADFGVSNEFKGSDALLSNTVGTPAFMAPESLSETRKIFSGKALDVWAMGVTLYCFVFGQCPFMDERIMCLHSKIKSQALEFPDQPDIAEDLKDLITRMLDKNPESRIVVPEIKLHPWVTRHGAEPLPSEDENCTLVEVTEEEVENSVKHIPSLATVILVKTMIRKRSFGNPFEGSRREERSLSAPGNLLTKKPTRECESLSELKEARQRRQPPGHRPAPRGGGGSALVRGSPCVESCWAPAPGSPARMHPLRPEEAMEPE
Chain of Dual specificity protein kinase CLK1 (Homo sapiens) (P49759 whole entry, looked up): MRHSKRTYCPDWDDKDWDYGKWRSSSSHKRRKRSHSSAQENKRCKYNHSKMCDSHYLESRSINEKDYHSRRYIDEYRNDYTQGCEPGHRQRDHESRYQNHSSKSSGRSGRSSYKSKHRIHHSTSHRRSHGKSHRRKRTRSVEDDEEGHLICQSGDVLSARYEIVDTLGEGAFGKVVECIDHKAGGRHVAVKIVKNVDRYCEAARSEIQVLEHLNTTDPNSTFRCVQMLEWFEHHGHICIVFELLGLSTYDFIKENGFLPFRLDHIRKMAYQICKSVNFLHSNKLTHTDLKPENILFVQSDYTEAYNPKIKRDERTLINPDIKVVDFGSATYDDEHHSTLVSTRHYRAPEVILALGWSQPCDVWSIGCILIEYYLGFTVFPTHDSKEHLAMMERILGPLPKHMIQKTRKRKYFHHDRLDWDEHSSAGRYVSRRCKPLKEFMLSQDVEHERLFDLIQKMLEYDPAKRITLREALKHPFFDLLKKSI
Chain of Serine/threonine-protein kinase/endoribonuclease IRE1 (Homo sapiens) (O75460 19-977 limits assumed): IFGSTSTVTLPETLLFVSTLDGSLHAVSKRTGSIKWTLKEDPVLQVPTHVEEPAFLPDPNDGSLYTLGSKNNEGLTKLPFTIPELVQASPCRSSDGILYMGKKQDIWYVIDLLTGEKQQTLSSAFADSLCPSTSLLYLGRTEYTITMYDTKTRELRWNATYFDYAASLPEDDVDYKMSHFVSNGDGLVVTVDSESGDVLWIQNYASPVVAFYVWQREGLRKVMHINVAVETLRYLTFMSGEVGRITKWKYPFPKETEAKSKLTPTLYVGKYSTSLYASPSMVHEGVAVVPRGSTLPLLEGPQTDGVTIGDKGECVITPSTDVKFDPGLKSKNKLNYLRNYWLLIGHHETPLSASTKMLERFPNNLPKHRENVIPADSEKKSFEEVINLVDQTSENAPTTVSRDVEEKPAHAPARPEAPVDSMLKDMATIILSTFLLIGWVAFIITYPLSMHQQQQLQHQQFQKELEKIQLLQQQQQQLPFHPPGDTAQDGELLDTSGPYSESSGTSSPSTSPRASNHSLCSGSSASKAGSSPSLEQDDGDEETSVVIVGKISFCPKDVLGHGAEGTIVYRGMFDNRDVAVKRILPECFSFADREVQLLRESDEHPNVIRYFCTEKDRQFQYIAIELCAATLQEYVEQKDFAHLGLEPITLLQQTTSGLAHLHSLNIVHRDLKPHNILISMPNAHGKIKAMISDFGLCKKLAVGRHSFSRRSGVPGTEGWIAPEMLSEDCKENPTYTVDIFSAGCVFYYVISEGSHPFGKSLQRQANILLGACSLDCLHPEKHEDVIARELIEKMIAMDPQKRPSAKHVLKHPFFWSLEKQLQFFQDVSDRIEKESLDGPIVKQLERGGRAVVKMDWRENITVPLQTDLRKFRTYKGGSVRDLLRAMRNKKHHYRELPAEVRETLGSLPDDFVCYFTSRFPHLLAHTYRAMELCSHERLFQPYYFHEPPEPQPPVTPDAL
Chain of Serine/threonine-protein kinase 32A (Homo sapiens) (Q8WU08 whole entry): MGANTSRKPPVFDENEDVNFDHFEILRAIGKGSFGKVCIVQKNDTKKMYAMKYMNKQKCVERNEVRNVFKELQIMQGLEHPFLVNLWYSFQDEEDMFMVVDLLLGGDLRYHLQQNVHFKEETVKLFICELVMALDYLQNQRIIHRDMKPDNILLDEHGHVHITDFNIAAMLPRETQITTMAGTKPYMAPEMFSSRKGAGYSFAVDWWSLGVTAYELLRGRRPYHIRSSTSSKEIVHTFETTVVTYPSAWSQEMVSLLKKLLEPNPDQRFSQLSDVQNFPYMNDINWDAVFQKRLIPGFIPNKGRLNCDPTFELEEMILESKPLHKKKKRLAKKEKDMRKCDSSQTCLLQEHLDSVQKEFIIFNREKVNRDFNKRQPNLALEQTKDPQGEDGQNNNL

Row | SMILES | inhibition [1] | inhibition [2] | inhibition [3] | inhibition [4] | inhibition [5] | inhibition [6] | inhibition [7] | inhibition [8] | inhibition [9] | inhibition [10] | inhibition [11] | inhibition [12] | inhibition [13] | inhibition [14] | inhibition [15] | inhibition [16] | inhibition [17] | inhibition [18] | inhibition [19] | inhibition [20] | also measured
1 | O=c1n(Cc2cncn2-c2cccc(Cl)c2)nc(-c2ccc(Cl)cc2)n1C[C@H](O)C(F)(F)F | 2.81% | -1.4% | 6.3% | 2.04% | -6% | 5.31% | -0.3% | -2.28% | -2.95% | 2.13% | -2.72% | -4.7% | 2.53% | -1.25% | -9.92% | 10.4% | 3.66% | -7.3% | 7.05% | 19.2% | inhibition [21]: 5.68%; inhibition [22]: -8.29%; inhibition [23]: 4.83%; inhibition [24]: 1.3%; inhibition [25]: 15.7%; inhibition [26]: -3.8%; inhibition [27]: 1.31%; inhibition [28]: -6.67%; inhibition [29]: -1.08%; inhibition [30]: 7.51%; inhibition [31]: -2.66%; inhibition [32]: -4.61%; inhibition [33]: 1.68%
2 | C[C@H](O)c1nc(Cn2nc(-c3ccc(Cl)cc3)n(C[C@H](O)C(F)(F)F)c2=O)nn1-c1cccc(Cl)c1 [PECAVAPTAN] | -1.87% | -0.64% | 10.9% | 0.69% | 1% | -6.51% | 0.49% | -1.02% | -4.67% | -6.69% | -6.93% | 19.5% | 9.3% | 4.6% | 0.47% | 2.48% | 1.85% | -5.21% | 7.77% | 5.58% | inhibition [21]: 9.02%; inhibition [22]: -3.85%; inhibition [23]: 1.02%; inhibition [24]: -7.49%; inhibition [25]: 12.3%; inhibition [26]: -3.83%; inhibition [27]: -2.92%; inhibition [28]: -6.9%; inhibition [29]: 3.15%; inhibition [30]: 5.58%; inhibition [31]: -5.36%; inhibition [32]: -6.76%; inhibition [33]: -0.82%
